Several values for one entry are separate records, joined by “and”; a condition that tells them apart may be missing. Equal entries are not always repeated. Structures can show the parent of a compound that is named as a salt.

The test concerns monoclonal antibody from hybridoma Hept-2. The format is binding, mice.
With `Clc1ccc(Cl)c(Cl)c1` [1,2,4-triCl-Bz], the “% Crossreactivity” value worked out at 0%.
On the same count and under the same terms, the same measure for `Clc1ccccc1Cl` [1,2-diCl-Bz]: 0%; for `Clc1cccc(Cl)c1` [1,3-diCl-Bz]: 0%.
Same read-out and setting: next, `Clc1ccc(Cl)cc1` [1,4-diCl-Bz]: 0%.
Same read-out and setting: next, `OCC(Cl)(Cl)Cl` [2,2,2-tri-Cl-ethanol]: 0.4%; `Oc1cc(Cl)c(Cl)cc1Cl` [2,4,5-triCl-phenol]: 0%.
As for `O=C(O)COc1cc(Cl)c(Cl)cc1Cl` [2,4,5-triCl-phenoxyacetic acid], the “% Crossreactivity” value was determined as 0%.
Same read-out and setting: the same measure for `Oc1c(Cl)cc(Cl)cc1Cl` [2,4,6-triCl-phenol]: 0%; for `O=C(O)COc1ccc(Cl)cc1Cl` [2,4-D]: 0%; for `Cc1ccc(O)c(C)c1` [2,4-DiMe-phenol]: 0%.
On the same count and under the same terms, the same measure for `O=[N+]([O-])c1cc(Cl)cc(Cl)c1O` [2,4-diCl-6-nitrophenol]: 0%.
Still for that read-out and setting: the same measure for `Oc1ccc(Cl)cc1Cl` [2,4-diCl-phenol]: 0%.
In the case of `O=[N+]([O-])c1ccc(O)c([N+](=O)[O-])c1` [2,4-dinitro-phenol], the “% Crossreactivity” value is 0.2%.
The same measure, in the same setting: the same measure for `O=[N+]([O-])c1cc(Cl)ccc1Cl` [2,5-diCl-nitroBz]: 0%; for `Clc1ccc2ccccc2c1` [2-Cl-naphthalene]: 0%; for `Oc1ccccc1Cl` [2-Cl-phenol]: 0%.
In the case of `O=[N+]([O-])c1ccccc1O` [2-nitro-phenol], the “% Crossreactivity” value is 0%.
Consider `Oc1cc(Cl)c(Cl)cc1O` [4,5-diCl-catecol], for which the “% Crossreactivity” value is listed as 0%.
As to `Cc1cc(O)ccc1Cl` [4-Cl-3-Me phenol], the “% Crossreactivity” value stood at 0%.
As for `O=[N+]([O-])c1ccc(O)cc1` [4-nitro-phenol], the “% Crossreactivity” value is on record as 0%.
On the same count and under the same terms, next, `Clc1ccccc1` [Chlorobenzene]: 0%.
Consider `Clc1ccc(C(c2ccc(Cl)cc2)C(Cl)(Cl)Cl)cc1` [DDT], for which the “% Crossreactivity” value was 0%.
On the same count and under the same terms, next, `O=S1OCC2C(CO1)C1(Cl)C(Cl)=C(Cl)C2(Cl)C1(Cl)Cl` (stereo not shown) [Endosulfan (mix), 6,7,8,9,10,10-Hexachloro-1,5,5a,6,9,9a-hexahydro-6,9,-methano-2,4,3-benzo[e]-dioxathiepin-3-oxide]: 173%.
For the molecule `O=S1(=O)OCC2C(CO1)C1(Cl)C(Cl)=C(Cl)C2(Cl)C1(Cl)Cl` (stereo not shown) [Endosulfansulfate, endosulfan sulfate], the “% Crossreactivity” value was 182%.
Turning to `O=C1C2(Cl)C3(Cl)C4(Cl)C(Cl)(Cl)C5(Cl)C3(Cl)C1(Cl)C5(Cl)C24Cl` (stereo not shown) [Kepone, Decachloro-octahydro-1,3,4,-metheno-2H-cyclobuta(cd) pentalen-2-one], the “% Crossreactivity” value was found to be 5%.
As for `ClC1C(Cl)C(Cl)C(Cl)C(Cl)C1Cl` (stereo not shown) [Lindand (BHC), 1,2,3,4,5,6-Hexachlorocyclohexane], the “% Crossreactivity” value worked out at 7.3%.
The same measure, in the same setting: the same measure for `O=S1OCC2C(CO1)C1(Cl)C(Cl)=C(Cl)C2(Cl)C1(Cl)Cl` (stereo not drawn) [a-Endosulfan, alpha-endosulfan]: 43%.
Take `ClC1=C(Cl)C2(Cl)C3C4C=CC(C4)C3C1(Cl)C2(Cl)Cl` (stereo not drawn) [aldrin, 1,2,3,4,10,10-Hexachloro-1,4,4a,5,8,8a hexahydro-1,4-exo, endo-5,8,-dimethanonaphthalene (HHDN)]: the “% Crossreactivity” value was 100% and the I50 is given as 1-10 ng/well.
Take `ClC1=C(Cl)C2(Cl)C3C(Cl)C(Cl)CC3C1(Cl)C2(Cl)Cl` (stereo not shown) [chlordane, 2,3,4,5,6,7,8,8-Octachloro-2,3,3a,4,7,7a-hexahydro-4,7-methanoindene]: the “% Crossreactivity” value turned out to be 75% and the I50 is 1-10 ng/well.
`ClC1=C(Cl)C2(Cl)C3C4CC(C5OC45)C3C1(Cl)C2(Cl)Cl` [endrin, (1R, 4S, 5R, 8S) 1,2,3,4,10,10-hexachloro-6,7-epoxy-1,4,4a,5,6,7,8,8a-octahydro-exo-5,8,dimethano-naphthalene]: the “% Crossreactivity” value is 150% and the I50 was 1-10 ng/well.
On to `ClC1=C(Cl)C2(Cl)C3C4OC4C(Cl)C3C1(Cl)C2(Cl)Cl` (stereo not shown) [heptachlor epoxide], for which the “% Crossreactivity” value is on record as 100% and the I50 was 1-10 ng/well.
For the molecule `ClC1=C(Cl)C2(Cl)C3C(Cl)C=CC3C1(Cl)C2(Cl)Cl` (stereo not drawn) [heptachlor, 1,-exo-,4,5,6,7,8,8,-Heptachloro-3a,4,7,7a-tetrahydro-4,7-methanoindene], the “% Crossreactivity” value amounted to 100%; the I50 is 2-4 ng/well and 1-10 ng/well.
Consider `ClC(Cl)=C(Cl)C(Cl)=C(Cl)Cl` [hexa-Cl-butadiene], for which the “% Crossreactivity” value is listed as 0.4%.
Same read-out and setting: next, `ClC1=C(Cl)C(Cl)(Cl)C(Cl)=C1Cl` [hexa-Cl-cyclopentadiene]: 1.6%.
Same read-out and setting: the same measure for `ClC(Cl)(Cl)C(Cl)(Cl)Cl` [hexa-Cl-ethane]: 0%; for `Oc1c(Cl)c(Cl)c(Cl)c(Cl)c1Cl` [penta-Cl-phenol]: 0%.
Turning to `Oc1ccccc1` [phenol], the “% Crossreactivity” value is given as 0%.
Still for that read-out and setting: next, `O=S1OCC2C(CO1)C1(Cl)C(Cl)=C(Cl)C2(Cl)C1(Cl)Cl` (stereo not drawn) [β-Endosulfan, beta-endosulfan]: 250%.
